Consider 1 molecule from patent US20100028872A1, “Methods for the Detection of Cancer” (priority 2006, published 2010).

Data set [1] concerns HRC51 clear cell renal tumor cell line. Nature of the data set: Expression microarray of genes upregulated after 5Aza-dC and TSA treatment. In kind it is cell-based, human. The settings on record: 5 μM 5Aza-dC and 500 nM TSA, 14,802 gene microarray. The protocol:
(§1) 5Aza-dC (Sigma, St. Louis, Mo.) was dissolved in phosphate buffered saline (PBS) as a 5 mM stock solution, and stored in aliquots at −80° C. TSA (Wako, Richmond, Va.) was dissolved in absolute ethanol as a 330 μM stock solution, and stored at −20° C. The 4 renal cell lines were split to low density and exposed to 5Aza-dC at a final concentration of 5 μM, again 24 hours after the beginning of treatment and, if necessary, further treatment until the cells had undergone at least 2 doublings. The cells were also treated with TSA at a final concentration of 500 nM during the 24 hours prior to harvest for RNA extraction. Untreated (mock) cells were cultured over an identical period of time with an equivalent volume of PBS and, for the final 24 hours, with an equivalent volume of EtOH.
(§2) Total RNA was isolated from drug-treated and untreated cultured cells using TRIZOL reagent (Invitrogen, Carlsbad, Calif.) and purified with the RNAeasy Mini Kit (Quiagen, Valencia, Calif.) combined with DNAase treatment. The RNA quality was confirmed by the ratio of 28S and 18S ribosomal RNA after agarose gel electrophoresis. Twenty μg of total RNA was reverse transcribed using oligo (dT)24 primer and Superscript II reverse transcriptase (Invitrogen, Carlsbad, Calif.) for 1.5 hours at 42° C.
(§3) For each cell line, both treated and untreated cDNA was labeled with Cy3 or Cy5 (Amersham Biosciences, Piscataway, N.J.) and then hybridized to separate human 15k oligoarrays (MWG-Biotech Inc, High Point, N.C.) according to the manufacturer's recommendation for 18 hours at 42° C. The microarrays were processed and spotted in the DNA Microarray Facility at FCCC. The Gene list, Gene ID and Template files can be viewed at research.fccc.edu/facilities/microarray. In addition, microarray hybridization was performed with the opposite labels (dye flip) from each cell line. The hybridized slides were scanned using a GMS 428 Scanner (Affymetrix, Santa Clara, Calif.) to generate high-resolution images for both Cy3 and Cy5 channels. Image analysis was performed using the ImaGene software (BioDiscovery, Inc, El Segundo, Calif.).
(§4) The genes corresponding to each oligonucleotide spotted on the array were identified using an optimized segmentation algorithm. […] Data were analyzed using the GeneSight software (BioDiscovery, Inc, El Segundo, Calif.) which includes background subtraction, data normalization (Lowess transformation), calculation of ratios, and statistical analysis of replicate spots and slides.
(§5) Up-regulation of the 14,802 gene microarray was analyzed in 4 RCC lines treated with 5 μM of 5Aza-dC and 500 nM of TSA. […] The promoter region of each gene was also analyzed for the presence of a CpG island with the characteristics described by Takai and Jones (Takai et al. (2002) Proc. Natl. Acad. Sci., 99:3740-5). […]

For data set [2], the system named is HRC59 papillary renal tumor cell line. Described as above. The format is cell-based, human. The note with it: 5 μM 5Aza-dC and 500 nM TSA, 14,802 gene microarray. How it is done:
as §1, §2, §3, §4, §5

The subject of data set [3] is ACHN papillary renal tumor cell line. Described as above. In kind it is cell-based, human. The settings on record: 5 μM 5Aza-dC and 500 nM TSA, 14,802 gene microarray. The protocol:
as §1, §2, §3, §4, §5

The test system of data set [4] is 786-0 clear cell renal tumor line. Described as above. The format is cell-based, human. The settings on record: 5 μM 5Aza-dC and 500 nM TSA, 14,802 gene microarray. The protocol:
as §1, §2, §3, §4, §5

For data set [5], the system named is SW48 colorectal tumor cell line. In words: 5Aza-dC dose optimisation: re-expression of silenced tumor suppressor genes on the expression array. In kind it is cell-based. The note with it: 5 μM 5Aza-dC for at least two cell doubling times, with TSA (500 nM). The source says: To determine the optimal 5Aza-dC dosage for robust detection of transcriptional reactivation on the microarray without excessive toxicity to the treated cells, the re-expression of 5 tumor suppressor genes, p16^INK4a, MLH1, MGMT, RARβ, and Timp-3, was examined at different doses of 5Aza-dC. The five TSG are well characterized as hypermethylated with associated silencing in the SW48 colorectal tumor cell line, which has a similar cell doubling time to the RCC lines (Wheeler et al. (1999) Proc. Natl. Acad. Sci., 96:10296-301; Esteller et al. (1999) Cancer Res., 59:793-97; Paz et al. (2003) Cancer Res., 63:1114-21; Herman et al. (1995) Cancer Res., 55:4525-30; Bachman et al. (1999) Cancer Res., 59:798-802). RNA was extracted from SW48 cell cultures after treatment with 1, 5, or 10 μM 5Aza-dC and TSA (500 nM). RT-PCR was then performed and the product labeled and hybridized to the expression array. […] The 5Aza-dC treatment was combined with TSA because there is good evidence that the processes of methylation and deacetylation interact to silence transcription, although TSA may have less synergistic effect at the relatively higher 5 μM 5Aza-dC dose employed than when combined with lower doses of 5Aza-dC (Cameron et al. (1999) Nat. Genet., 21:103-7; Wade et al. (2001) Oncogene, 20:3166-73). […]

For the molecule `Nc1ncn([C@H]2C[C@H](O)[C@@H](CO)O2)c(=O)n1` [5Aza-dC, 5Aza-2deoxycytidine], the “genes upregulated at least 3-fold compared to the untreated cells” value in data set [1] was 112 genes; in data set [2], 178 genes; in data set [3], 111 genes; in data set [4], 170 genes. The “toxicity as assessed by comparison of cell morphology and cell death between control and treated cells” value in data set [5] is on record as “minimal toxicity”. Moreover, in data set [5] (SW48 cells), the “re-expression of 5 tumor suppressor genes (p16INK4a, MLH1, MGMT, RARβ, Timp-3)” value is “re-expression of the 5 TSG”.
